pIC50: −log10 of the molar value. Calls of active or inactive are those of the source. The rule behind the calls is not given here.
Legend:
[1] = target: T1, Serine-protein kinase ATM (Homo sapiens, UniProt Q13315); assay: Inhibition of ATM in human MCF7 cells assessed as decrease in pKAP-1 level measured by In-cell western assay; type: cell-based
[2] = target: T1, Serine-protein kinase ATM; assay: Inhibition of ATM in human MCF7 cells assessed as increase in pATM level at 12.5 to 18 uM measured by western blot analysis; type: cell-based; conditions: dose 12.5-18 µM
[3] = target: T1, Serine-protein kinase ATM; assay: Inhibition of ATM in human MCF7 cells assessed as increase in pKAP1 level at 12.5 to 18 uM measured by western blot analysis; type: cell-based; conditions: dose 12.5-18 µM
[4] = target: T1, Serine-protein kinase ATM; assay: Binding affinity towards ATM (unknown origin) assessed as increase in thermal stability of ATM at 30 uM measured by thermal shift assay
HEK293 = assay: Cytotoxicity against human HEK293 cells at 100 uM; type: toxicity, cell-based; conditions: hek293, 100 µM
MDCK = assay: Cytotoxicity against dog MDCK cells at 100 uM; type: toxicity, cell-based, Canis lupus familiaris
MCF7 [5] = assay: Antiproliferative activity against human MCF7 cells measured after 2 days by SRB assay; type: functional, cell-based; conditions: MCF7, 48 h
SW480 [6] = assay: Antiproliferative activity against human SW480 cells measured after 3 days by SRB assay; type: functional, cell-based; conditions: SW480, 72 h
MCF7 [7] = assay: Antiproliferative activity against human MCF7 cells measured after 6 days by SRB assay; type: functional, cell-based; conditions: MCF7, 144 h
SW480 [8] = assay: Antiproliferative activity against human SW480 cells measured after 9 days by SRB assay; type: functional, cell-based; conditions: SW480, 216 h
[9] = Toxicity in BALB/c nude mouse xenografted with human SW480 cells assessed as effect on body weight at 30 mg/kg, iv; type: organism-based; conditions: in vivo
[10] = target: T1, Serine-protein kinase ATM; assay: Competitive inhibition of ATM (unknown origin) measured by ATP-competitive binding assay
[11] = target: T1, Serine-protein kinase ATM; assay: Activation of ATM in human MCF7 cells assessed as increase in pKAP-1 level at 0.001 to 100 uM measured by In-cell western assay; type: cell-based; conditions: filed as activator, dose 0.001-100 µM
[12] = target: T1, Serine-protein kinase ATM; assay: Activation of ATM in human MCF7 cells assessed as increase in pATM level at 30 uM in presence of 25 uM etoposide measured by western blot analysis; type: cell-based; conditions: filed as activator
[13] = target: T1, Serine-protein kinase ATM; assay: Activation of ATM in human MCF7 cells assessed as increase in pKAP1 level at 30 uM in presence of 25 uM etoposide measured by western blot analysis; type: cell-based; conditions: filed as activator
MCF7 [14] = assay: Antiproliferative activity against human MCF7 cells assessed as growth inhibition at 100 uM measured after 2 days by SRB assay; type: functional; conditions: MCF7, 48 h, time 2 day, read-out: GI
SW480 [15] = assay: Antiproliferative activity against human SW480 cells assessed as growth inhibition at 100 uM measured after 3 days by SRB assay; type: functional; conditions: SW480, 72 h, time 3 day, read-out: GI

T1 sequence (Q13315 whole entry): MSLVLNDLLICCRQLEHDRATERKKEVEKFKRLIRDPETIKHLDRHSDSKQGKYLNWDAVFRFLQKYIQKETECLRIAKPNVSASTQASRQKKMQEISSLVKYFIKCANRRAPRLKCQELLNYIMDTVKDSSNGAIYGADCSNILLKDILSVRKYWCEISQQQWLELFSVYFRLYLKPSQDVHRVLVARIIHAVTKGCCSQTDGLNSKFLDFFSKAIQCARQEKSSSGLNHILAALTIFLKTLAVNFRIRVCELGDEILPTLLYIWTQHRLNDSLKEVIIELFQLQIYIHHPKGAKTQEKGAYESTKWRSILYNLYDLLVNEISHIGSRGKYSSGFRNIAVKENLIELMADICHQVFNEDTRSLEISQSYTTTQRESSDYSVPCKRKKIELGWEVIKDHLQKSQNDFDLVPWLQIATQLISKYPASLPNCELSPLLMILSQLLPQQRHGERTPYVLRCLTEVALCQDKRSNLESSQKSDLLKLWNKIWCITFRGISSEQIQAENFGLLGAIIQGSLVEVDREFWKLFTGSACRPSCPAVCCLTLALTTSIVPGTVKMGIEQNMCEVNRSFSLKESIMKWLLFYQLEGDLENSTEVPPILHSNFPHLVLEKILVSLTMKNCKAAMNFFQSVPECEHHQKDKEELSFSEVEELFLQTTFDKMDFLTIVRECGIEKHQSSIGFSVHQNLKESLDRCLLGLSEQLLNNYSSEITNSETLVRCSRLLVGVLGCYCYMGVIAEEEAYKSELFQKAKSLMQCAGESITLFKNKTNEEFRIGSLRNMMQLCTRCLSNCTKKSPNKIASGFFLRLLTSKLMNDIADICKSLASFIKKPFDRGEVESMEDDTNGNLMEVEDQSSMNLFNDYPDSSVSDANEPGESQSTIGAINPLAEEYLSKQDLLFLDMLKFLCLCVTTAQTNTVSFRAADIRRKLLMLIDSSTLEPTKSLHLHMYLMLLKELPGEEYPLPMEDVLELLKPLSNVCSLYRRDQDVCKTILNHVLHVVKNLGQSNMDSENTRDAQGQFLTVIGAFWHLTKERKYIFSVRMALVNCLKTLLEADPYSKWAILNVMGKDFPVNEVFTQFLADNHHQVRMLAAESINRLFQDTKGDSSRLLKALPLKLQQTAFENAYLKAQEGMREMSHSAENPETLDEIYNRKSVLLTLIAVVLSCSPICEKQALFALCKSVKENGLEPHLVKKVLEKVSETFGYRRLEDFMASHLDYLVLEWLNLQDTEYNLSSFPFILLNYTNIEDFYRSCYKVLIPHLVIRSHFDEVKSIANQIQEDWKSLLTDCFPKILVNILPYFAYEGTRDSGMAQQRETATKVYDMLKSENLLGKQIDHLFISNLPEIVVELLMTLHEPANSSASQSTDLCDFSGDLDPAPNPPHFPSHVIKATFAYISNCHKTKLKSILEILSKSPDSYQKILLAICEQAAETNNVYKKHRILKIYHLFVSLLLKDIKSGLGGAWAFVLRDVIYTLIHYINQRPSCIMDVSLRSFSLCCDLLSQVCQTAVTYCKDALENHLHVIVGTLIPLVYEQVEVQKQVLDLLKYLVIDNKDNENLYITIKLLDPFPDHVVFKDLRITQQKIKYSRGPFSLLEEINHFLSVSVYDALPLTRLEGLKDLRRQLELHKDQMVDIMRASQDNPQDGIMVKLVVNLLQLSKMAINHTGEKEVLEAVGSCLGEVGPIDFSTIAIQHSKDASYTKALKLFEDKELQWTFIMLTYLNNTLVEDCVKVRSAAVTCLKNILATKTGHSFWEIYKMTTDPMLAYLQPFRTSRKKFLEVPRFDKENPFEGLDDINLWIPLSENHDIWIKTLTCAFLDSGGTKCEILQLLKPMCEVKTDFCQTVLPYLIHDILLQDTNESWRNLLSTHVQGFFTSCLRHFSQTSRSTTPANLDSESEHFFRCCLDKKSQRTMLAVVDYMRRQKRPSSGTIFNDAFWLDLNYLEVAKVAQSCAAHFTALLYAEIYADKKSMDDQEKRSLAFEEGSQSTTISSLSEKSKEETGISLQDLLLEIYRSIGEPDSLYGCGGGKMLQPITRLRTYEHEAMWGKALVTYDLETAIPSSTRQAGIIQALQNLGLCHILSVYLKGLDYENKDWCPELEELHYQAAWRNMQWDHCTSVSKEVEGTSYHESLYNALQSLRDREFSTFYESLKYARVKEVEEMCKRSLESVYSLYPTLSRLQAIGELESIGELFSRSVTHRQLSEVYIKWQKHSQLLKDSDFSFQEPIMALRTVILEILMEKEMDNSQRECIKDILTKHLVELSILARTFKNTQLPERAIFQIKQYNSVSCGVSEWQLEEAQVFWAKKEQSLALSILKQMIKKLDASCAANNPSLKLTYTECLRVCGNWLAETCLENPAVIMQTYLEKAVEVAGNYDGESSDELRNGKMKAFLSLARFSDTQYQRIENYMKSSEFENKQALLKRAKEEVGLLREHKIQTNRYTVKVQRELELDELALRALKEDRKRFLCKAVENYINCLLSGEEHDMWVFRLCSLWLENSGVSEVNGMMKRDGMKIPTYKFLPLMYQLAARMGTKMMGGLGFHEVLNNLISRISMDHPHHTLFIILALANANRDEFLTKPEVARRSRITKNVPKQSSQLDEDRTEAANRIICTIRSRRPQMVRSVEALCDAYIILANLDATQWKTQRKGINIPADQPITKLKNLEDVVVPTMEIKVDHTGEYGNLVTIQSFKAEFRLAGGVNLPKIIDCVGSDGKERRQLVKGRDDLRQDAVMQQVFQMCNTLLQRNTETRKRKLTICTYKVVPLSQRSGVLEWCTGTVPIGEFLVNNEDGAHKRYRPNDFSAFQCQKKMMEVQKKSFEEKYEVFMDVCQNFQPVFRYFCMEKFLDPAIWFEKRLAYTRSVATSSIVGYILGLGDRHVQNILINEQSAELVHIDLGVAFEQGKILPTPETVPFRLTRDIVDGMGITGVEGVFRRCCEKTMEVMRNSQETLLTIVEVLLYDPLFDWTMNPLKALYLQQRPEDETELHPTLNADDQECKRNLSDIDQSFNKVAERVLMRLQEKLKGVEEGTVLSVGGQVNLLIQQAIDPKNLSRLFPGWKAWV

Row | SMILES | Activity (HEK293) | Activity (MDCK) | pIC50 (MCF7 [5]) | pIC50 (SW480 [6]) | other results
1 | OCCNCc1c(OCc2ccc(Cl)cc2Cl)ccc2ccccc12 | Non-Toxic | Non-Toxic | 5.20 | 5.31 | pIC50 [1]: 4.48; inhibition [2]: Active; inhibition [3]: Active; Activity [4]: Active; pIC50 (MCF7 [7]): 4.67; pIC50 (SW480 [8]): 5.26; Activity [9]: Non-Toxic
2 | C[C@@H]1CN(CC(=O)Nc2ccc3c(c2)Cc2cccc(-c4cc(=O)cc(N5CCOCC5)o4)c2S3)C[C@H](C)O1 | Non-Toxic | Non-Toxic | 4.92 | 4.88 | pIC50 (MCF7 [7]): 5.55; pIC50 (SW480 [8]): 5.48
3 | CN(C)CCCOc1ccc(-c2ccc3ncc4c(c3c2)n(C2CCOCC2)c(=O)n4C)cn1 | Non-Toxic | Non-Toxic | 6.22 | 5.96 | 
4 | CNC(=O)c1ccc(-c2cnc3cnc(-c4ccccc4)cn23)cc1 |  |  |  |  | pIC50 [10]: 6.51
5 | COc1ccc(C(=O)NC(=S)Nc2cccc(-c3nc4ncccc4o3)c2)cc1Cl | Non-Toxic | Non-Toxic | < 4.00 | < 4.00 | Activity [11]: Active; Activity [12]: Active; Activity [13]: Active; Activity ([4]; filed as activator): Active; inhibition of growth at 100 µM (MCF7 [14]): < 20%; inhibition of growth at 100 µM (SW480 [15]): < 20%
6 | CCN(CC)CCCC(C)Nc1ccnc2cc(Cl)ccc12 (stereo not drawn) [CHLOROQUINE] |  |  | 4.88 | 4.83 | 
7 | O=c1cc(-c2cccc3c2Sc2ccccc2S3)oc(N2CCOCC2)c1 [KU-55933] | Non-Toxic | Non-Toxic | 4.61 | 4.58 | 

Reference: ChEMBL document CHEMBL5154770, “Discovery of novel ataxia telangiectasia mutated (ATM) kinase modulators: Computational simulation, biological evaluation and cancer combinational chemotherapy study” (Eur J Med Chem, 2022)
